This note sets out measurements from ChEMBL document CHEMBL4024761, “Protac-Induced Protein Degradation in Drug Discovery: Breaking the Rules or Just Making New Ones?” (J Med Chem, 2018).

Assay [1] addresses von Hippel-Lindau disease tumor suppressor (Homo sapiens, UniProt P40337). Put plainly: Binding affinity to VHL (unknown origin) assessed as reduction of HIF1alpha derived peptide binding to VHL complex by competitive binding fluorescence polarization assay. (In general: Fluorescence polarisation rises when a labelled molecule tumbles more slowly, as on binding a larger partner.)

Assay [2] deals with von Hippel-Lindau disease tumor suppressor/Receptor-interacting serine/threonine-protein kinase 2 (Homo sapiens, UniProt O43353+P40337). Put plainly: Proteolysis targeting chimera activity in human THP1 cells assessed as induction of VHL-mediated delivery of RIPK2 for protein degradation by proteasome by measuring drug level causing 50% cellular protein depletion incubated for 16 hrs by Western blotting method. The format is cell-based. For orientation: A western blot detects proteins with antibodies after separation by electrophoresis.
Chain of von Hippel-Lindau disease tumor suppressor/Receptor-interacting serine/threonine-protein kinase 2 (O43353 whole entry): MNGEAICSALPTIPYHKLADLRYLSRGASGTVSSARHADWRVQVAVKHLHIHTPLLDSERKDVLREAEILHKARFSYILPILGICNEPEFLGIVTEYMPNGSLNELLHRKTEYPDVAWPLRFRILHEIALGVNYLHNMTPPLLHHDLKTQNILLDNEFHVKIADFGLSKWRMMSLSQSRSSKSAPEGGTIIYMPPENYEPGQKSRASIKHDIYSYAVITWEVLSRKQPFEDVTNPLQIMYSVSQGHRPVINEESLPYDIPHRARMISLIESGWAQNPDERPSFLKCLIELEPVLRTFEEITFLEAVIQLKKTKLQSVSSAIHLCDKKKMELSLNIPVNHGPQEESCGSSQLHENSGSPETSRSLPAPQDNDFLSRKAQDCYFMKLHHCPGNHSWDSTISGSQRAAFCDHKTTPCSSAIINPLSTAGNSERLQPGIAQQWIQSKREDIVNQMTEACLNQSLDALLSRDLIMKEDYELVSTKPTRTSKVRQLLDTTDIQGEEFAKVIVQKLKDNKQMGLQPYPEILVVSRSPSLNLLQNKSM
Chain of von Hippel-Lindau disease tumor suppressor/Receptor-interacting serine/threonine-protein kinase 2 (P40337 whole entry): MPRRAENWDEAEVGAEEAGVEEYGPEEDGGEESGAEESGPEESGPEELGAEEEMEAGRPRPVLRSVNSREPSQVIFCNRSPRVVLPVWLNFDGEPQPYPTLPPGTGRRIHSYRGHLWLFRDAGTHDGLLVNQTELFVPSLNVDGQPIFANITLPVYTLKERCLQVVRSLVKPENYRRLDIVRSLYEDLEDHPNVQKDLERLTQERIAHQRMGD

Molecules are shown by their SMILES.

Chain of von Hippel-Lindau disease tumor suppressor (P40337 whole entry): as above

In general, Kd refers to the free concentration of one partner at which half of the binding sites on the other are occupied at equilibrium, for simple one-to-one binding. In general, DC50 refers to the midpoint of the concentration-degradation curve. Take `Cc1ncsc1-c1ccc(CNC(=O)[C@@H]2C[C@@H](O)CN2C(=O)[C@@H](NC(=O)COCCOCCOCCOCCOc2cc3nccc(Nc4ccc5scnc5c4)c3cc2S(=O)(=O)C(C)(C)C)C(C)(C)C)cc1`: the Kd in assay [1] stood at 500 nM. For the same molecule, in assay [2], the DC50 was determined as 1 nM.
